According to PMC6273635, “Synthesis and Structure-Activity Relationships of Imidazole-Coumarin Conjugates against Hepatitis C Virus” (Molecules, 2016):
Where two headings read alike, the source gives them in different places.

Key:
[1] = test system: HCV genotype 1b subgenomic Huh 5-2 replicon system; assay: Antiviral effect on HCV 1b subgenomic replicon replication in Huh 5-2 cells; assay type: cell-based, Hepatitis C virus
Method: (§1) The antiviral activity of conjugated compounds 3a–g, 7a–e, 9a,b,d–f, and 11b,e,f in the HCV genotype 1b subgenomic Huh 5-2 replicon system was evaluated according to established procedures. On the basis of the dose-response curves that were obtained, the concentration of a compound that inhibited virus replication by 50% (i.e., EC50) and the concentration of compound that reduced host cell metabolism by 50% (i.e., CC50) were obtained. These values subsequently allowed us to calculate the selectivity index (i.e., SI = CC50/EC50), which is a measure for the therapeutic window of the compound in an assay system. […] The observed antiviral effect of other compounds was most likely related mainly to the pleiotropic or aspecific effect on the host cell.

[2] = Anti-metabolic effect on host cell metabolism (MTS method) in Huh 5-2 replicon cells; assay type: cell-based; conditions: human, Huh 5-2 cells (HCV genotype 1b subgenomic replicon), concentration reducing host cell metabolism by 50%, average of triplicate determinations
Method: as §1

Huh 5-2 cells [3] = test system: Huh 5-2 cells; parameters: method as in PMID 17977606; conditions: host cell metabolism, MTS method, reference known compounds, ref [11]; cited from earlier work
[4] = test system: HCV genotype 1b subgenomic Huh 5-2 replicon system; parameters: method as in PMID 17977606; conditions: HCV 1b subgenomic replicon in Huh 5-2 cells; reference known compounds; ref [11]; cited from earlier work
Huh 5-2 cells [5] = assay: Anti-metabolic effect on host cell metabolism (MTS method) in Huh 5-2 replicon cells; assay type: cell-based; conditions: concentration reducing host cell metabolism by 50%, average of triplicate determinations
Method: as §1

SMILES	melting point [°C]	EC50 ([1]; Hepatitis C virus, Huh-5-2) [µM]	CC50 [2] [µM]	CC50 (Huh 5-2 cells [3]) [µM]	EC50 [4] [µM]	EC50 ([1]; concentration inhibiting virus replication by 50%, real-time quantitative RT-PCR, HCV 1b Huh 5-2 replicon, average of triplicate determinations, read-out: EC50) [µM]	CC50 (Huh 5-2 cells [5]) [µM]
O=c1oc2ccccc2cc1CSc1ncc[nH]1 [Compound 3a, 2-[(Coumarin-3’-yl)methylthio]imidazole]	252 to 252.8	30	122	–	–	–	–
COc1cccc2cc(CSc3nc4c(=O)[nH]cnc4n3[C@@H]3O[C@H](CO)[C@@H](O)[C@H]3O)c(=O)oc12 [Compound 9e, 8-[(8′-Methoxycoumarin-3′-yl)methylthio]inosine]	–	102	102	–	–	–	–
O=c1oc2ccc(Br)cc2cc1CSc1nc2ccccc2[nH]1 [Compound 12d]	–	–	–	42	4	–	–
O=c1oc2ccc(F)cc2cc1CSc1nccn1[C@@H]1O[C@H](CO)[C@@H](O)[C@H]1O [Compound 7b, 1-(β-D-Ribofuranos-1″-yl)-2-[(6′-fluorocoumarin-3′-yl)methylthio]imidazole]	171.2 to 172.4	26	122	–	–	–	–
O=c1oc2ccccc2cc1CSc1nccn1[C@@H]1O[C@H](CO)[C@@H](O)[C@H]1O [Compound 7a, 1-(β-D-Ribofuranos-1″-yl)-2-[(coumarin-3′-yl)methylthio]imidazole]	164.6 to 165.4	59	128	–	–	–	–
O=c1oc2ccc(Cl)cc2cc1CSc1ncc[nH]1 [Compound 3c, 2-[(6′-Chlorocoumarin-3′-yl)methylthio]imidazole]	266.2 to 270	9.7	85	–	–	–	–
Cc1ccc2oc(=O)c(CSc3nc4c(=O)[nH]cnc4n3[C@@H]3O[C@H](CO)[C@@H](O)[C@H]3O)cc2c1 [Compound 9f, 8-[(6′-Methylcoumarin-3′-yl)methylthio]inosine]	–	106	106	–	–	–	–
COc1cccc2cc(CSc3nc4c(=O)[nH]c(N)nc4n3[C@@H]3O[C@H](CO)[C@@H](O)[C@H]3O)c(=O)oc12 [Compound 11e, 8-[(8′-Methoxycoumarin-3′-yl)methylthio]guanosine]	–	99	99	–	–	–	–
Nc1nc2c(nc(SCc3cc4cc(F)ccc4oc3=O)n2[C@@H]2O[C@H](CO)[C@@H](O)[C@H]2O)c(=O)[nH]1 [Compound 11b, 8-[(6′-Fluorocoumarin-3′-yl)methylthio]guanosine]	–	102	102	–	–	–	–
c1c[nH]cn1 [imidazole]	–	–	–	–	–	> 150	> 500
O=c1ccc2ccccc2o1 [coumarin]	–	> 150	> 500	–	–	–	–
COc1cccc2cc(CSc3nccn3[C@@H]3O[C@H](CO)[C@@H](O)[C@H]3O)c(=O)oc12 [Compound 7e, 1-(β-D-Ribofuranos-1″-yl)-2-[(8′-methoxycoumarin-3′-yl)methylthio]imidazole]	169.6 to 170.4	34	119	–	–	–	–
O=c1oc2ccc(F)cc2cc1CSc1ncc[nH]1 [Compound 3b, 2-[(6′-Fluorocoumarin-3′-yl)methylthio]imidazole]	258.6 to 259.4	7.2	83	–	–	–	–
O=c1oc2ccc(Br)cc2cc1CSc1nccn1[C@@H]1O[C@H](CO)[C@@H](O)[C@H]1O [Compound 7d, 1-(β-D-Ribofuranos-1″-yl)-2-[(6′-bromocoumarin-3′-yl)methylthio]imidazole]	188.8 to 189.4	19	107	–	–	–	–
O=c1oc2ccc(F)cc2cc1CSc1nc2c(=O)[nH]cnc2n1[C@@H]1O[C@H](CO)[C@@H](O)[C@H]1O [Compound 9b, 8-[(6′-Fluorocoumarin-3′-yl)methylthio]inosine]	–	73	105	–	–	–	–
O=c1oc2ccc(Br)cc2cc1CSc1nc2c(=O)[nH]cnc2n1[C@@H]1O[C@H](CO)[C@@H](O)[C@H]1O [Compound 9d, 8-[(6′-Bromocoumarin-3′-yl)methylthio]inosine]	–	70	93	–	–	–	–
O=c1oc2ccccc2cc1CSc1nc2c(=O)[nH]cnc2n1[C@@H]1O[C@H](CO)[C@@H](O)[C@H]1O [Compound 9a, 8-[(Coumarin-3′-yl)methylthio]inosine]	–	61	109	–	–	–	–
COc1cccc2cc(CSc3ncc[nH]3)c(=O)oc12 [Compound 3e, 2-[(8′-Methoxycoumarin-3′-yl)methylthio]imidazole]	269.8 to 270.6	8.4	173	–	–	–	–
Cc1ccc2oc(=O)c(CSc3nc4c(=O)[nH]c(N)nc4n3[C@@H]3O[C@H](CO)[C@@H](O)[C@H]3O)cc2c1 [Compound 11f, 8-[(6′-Methylcoumarin-3′-yl)methylthio]guanosine]	–	103	103	–	–	–	–
Cn1ccnc1SCc1cc2ccccc2oc1=O [Compound 3f, 1-Methyl-2-[(coumarin-3′-yl)methylthio]imidazole]	244.2 to 244.8	6.7	49	–	–	–	–
O=c1oc2ccccc2cc1CSc1nc2ccccc2[nH]1 [Compound 12a]	–	–	–	90	27	–	–
O=c1oc2ccc(Cl)cc2cc1CSc1nccn1[C@@H]1O[C@H](CO)[C@@H](O)[C@H]1O [Compound 7c, 1-(β-D-Ribofuranos-1″-yl)-2-[(6′-chlorocoumarin-3′-yl)methylthio]imidazole]	178.8 to 179.6	14	85	–	–	–	–
COc1cccc2cc(CSc3nc4ccccc4[nH]3)c(=O)oc12 [Compound 12e]	–	–	–	27	10	–	–
Cn1ccnc1SCc1cc2cc(Cl)ccc2oc1=O [Compound 3g, 1-Methyl-2-[(6′-chlorocoumarin-3′-yl)methylthio]imidazole]	256.2 to 257.2	15	75	–	–	–	–
O=c1oc2ccc(Br)cc2cc1CSc1ncc[nH]1 [Compound 3d, 2-[(6′-Bromocoumarin-3′-yl)methylthio]imidazole]	276.8 to 277.4	5.1	75	–	–	–	–
